PubChem BioAssay AID1963979 (Molecular Pharmacology Branch, DTP, NCI, 2024)
pIC50: −log10 of the molar value.

System: 361931-004-R-J1-PDC multicell spheroid viability
Test: Anticancer human tumor 361931-004-R-J1-PDC patient-derived colon adenocarcinoma cell line growth inhibition [PI3K]
Settings: for pIC50: curve of first compound; for viability, T/C: stronger effect = lower value; active means viability on the fitted dose curve at most 10% of control; inactive means the rest
Description: Combinatorial screen of targeted agents with the PI3K inhibitors inavolisib, alpelisib, duvelisib, and copanlisib in multi-cell type tumor spheroids
A high-throughput screen of multi-cell type tumor spheroids was designed to identify active combinations of targeted small molecules and PI3K pathway inhibitors. Complex spheroids include a stromal component modeled by human endothelial cells (HUVEC) and fibroblasts modeled by human mesenchymal stem cells (MSCs). The concentration ranges selected for each drug and investigational agent were based upon clinically achievable concentrations if the clinical Cmax of the agent was known.
Compounds. The drugs and investigational agents: inavolisib (NSC800729), alpelisib (NSC765974), duvelisib (NSC772469), copanlisib (NSC816437), ipatasertib (NSC767898), afuresertib (NSC778305), talazoparib (NSC767125), sapanisertib (NSC764658), selumetinib (NSC741078), tovorafenib (DAY101, NSC766906), vemurafenib (NSC761431), ravoxertinib (NSC781343), sotorasib (NSC818433), MRTX1133 (NSC 836407), abemaciclib (NSC 768073), palbociclib (NSC758247), venetoclax (NSC 766270), SY5609 (NSC837396), enzalutamide (NSC755605), and darolutamide (NSC825331), were obtained from the National Cancer Institute (NCI) Developmental Therapeutics Program Chemical Repository. The FDA-approved anticancer drug set is available from the NCI Developmental Therapeutics Program. […] The stock solutions were prepared in dimethyl sulfoxide (DMSO, Sigma-Aldrich, St. Louis, MO, cat. D2650) at 800-fold the tested concentration and stored at -70 degrees C prior to their use. All drugs and investigational agents were tested over a range starting from a high concentration at or near the clinical Cmax and decreasing in half-log increments. If the clinical Cmax for an agent had not been determined, the highest concentration tested was 10 microM.
Cell Culture. All cells were maintained in an incubator at 37 degrees C and 5% CO2 with 95% humidity. The PDC lines were cultured according to standard operating procedures established by the NCI PDMR (https://pdmr.cancer.gov/sops/default.htm). All PDCs were thawed and cultured in Matrigel-coated flasks prepared with a working solution of 1X Ham's F-12 nutrient mix, without supplementation (Invitrogen, Waltham, MA, cat. 11765054), 100 U/mL penicillin-streptomycin (Invitrogen, cat. 15140122), and 2.5% Matrigel (Corning Inc., Corning, NY, cat. 354248) for the first three passages. The 354836-022-R-J1-PDC, 475296-252-R-J1-PDC, and 997726-040-R-J2-PDC lines were cultured in 6A media, which includes advanced DMEM/F-12 (Thermo Fisher Scientific, cat. 12634028), 10 mM HEPES (Thermo Fisher Scientific, cat. 15630080), 1X GlutaMAX supplement (Thermo Fisher Scientific, cat. 35050061), 0.1 mg/mL primocin (InvivoGen, San Diego, CA, cat. ant-pm-2), 10% defined fetal bovine serum, heat inactivated (HyClone Laboratories Inc., Logan, UT, cat. SH30070.03HI), 50% L-WRN conditioned media (ATCC, cat. CRL-3276), 1.25 mM N-Acetyl-L-cysteine (Sigma-Aldrich, cat. A9165), 10 mM nicotinamide (Sigma-Aldrich, cat. N0636), 1X B-27 supplement (Thermo Fisher Scientific, cat. 17504044), 1X N-2 supplement (Thermo Fisher Scientific, cat. 17502048), and 10 microM Y-27632 dihydrochloride (Tocris Bioscience, Bristol, United Kingdom, cat. 1254). The 624824-186-R-J2-PDC line was cultured in 6C/Colon 1B media, which includes all 6A media components plus 50 ng/mL human EGF recombinant protein (Thermo Fisher Scientific, cat. PHG0311). […]

[1] = second compound 0.00316 µM, first compound 0.0316 µM
[2] = second compound 0.00316 µM, first compound 0.1 µM
[3] = second compound 0.00316 µM, first compound 0.316 µM
[4] = second compound 0.00316 µM, first compound 1 µM
[5] = second compound 0.00316 µM, first compound 3.16 µM
[6] = second compound 0.00316 µM, first compound 10 µM
[7] = second compound 0.01 µM, first compound 0.0316 µM
[8] = second compound 0.01 µM, first compound 0.1 µM
[9] = second compound 0.01 µM, first compound 0.316 µM
[10] = second compound 0.01 µM, first compound 1 µM
[11] = second compound 0.01 µM, first compound 3.16 µM
[12] = second compound 0.01 µM, first compound 10 µM
[13] = second compound 0.0316 µM, first compound 0.0316 µM
[14] = second compound 0.0316 µM, first compound 0.1 µM
[15] = second compound 0.0316 µM, first compound 0.316 µM
[16] = second compound 0.0316 µM, first compound 1 µM
[17] = second compound 0.0316 µM, first compound 3.16 µM
[18] = second compound 0.0316 µM, first compound 10 µM
[19] = second compound 0.1 µM, first compound 0.0316 µM
[20] = second compound 0.1 µM, first compound 0.1 µM
[21] = second compound 0.1 µM, first compound 0.316 µM
[22] = second compound 0.1 µM, first compound 1 µM
[23] = second compound 0.1 µM, first compound 3.16 µM
[24] = second compound 0.1 µM, first compound 10 µM
[25] = second compound 0.316 µM, first compound 0.0316 µM
[26] = second compound 0.316 µM, first compound 0.1 µM
[27] = second compound 0.316 µM, first compound 0.316 µM
[28] = second compound 0.316 µM, first compound 1 µM
[29] = second compound 0.316 µM, first compound 3.16 µM
[30] = second compound 0.316 µM, first compound 10 µM
[31] = second compound 1 µM, first compound 0.0316 µM
[32] = second compound 1 µM, first compound 0.1 µM
[33] = second compound 1 µM, first compound 0.316 µM
[34] = second compound 1 µM, first compound 1 µM
[35] = second compound 1 µM, first compound 3.16 µM
[36] = second compound 1 µM, first compound 10 µM
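Further: spheroids exposed to agents for seven days before readout.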

Cn1ncc(Cl)c1-c1cc(C(=O)NC(CN)Cc2cccc(F)c2)sc1Cl (centres undefined) + CC(Nc1ccc2c(c1)OCCn1cc(N3C(=O)OCC3C(F)F)nc1-2)C(N)=O
6.16: pIC50 (second compound 0.0316 µM)
6.18: pIC50 (second compound 1 µM)
5.96: pIC50 (second compound 0.00316 µM)
inactive: viability, T/C [1] 92.5% | viability, T/C [2] 91.9% | viability, T/C [3] 76.6% | viability, T/C [4] 50.9% | viability, T/C [5] 32.2% | viability, T/C [6] 22.6% | viability, T/C [7] 99% | viability, T/C [8] 94.5% | viability, T/C [9] 68.7% | viability, T/C [10] 48.4% | viability, T/C [11] 29% | viability, T/C [12] 15.4% | viability, T/C [13] 103% | viability, T/C [14] 110% | viability, T/C [15] 75.2% | viability, T/C [16] 37.3% | viability, T/C [17] 25.8% | viability, T/C [18] 12.8% | viability, T/C [19] 85% | viability, T/C [20] 87.7% | viability, T/C [21] 67% | viability, T/C [22] 41.6% | viability, T/C [23] 26.1% | viability, T/C [24] 12.8% | viability, T/C [25] 90.1% | viability, T/C [26] 77.9% | viability, T/C [27] 68.8% | viability, T/C [28] 54.2% | viability, T/C [29] 22.4% | viability, T/C [30] 14.6% | viability, T/C [31] 82.6% | viability, T/C [32] 79.4% | viability, T/C [33] 59.5% | viability, T/C [34] 45.1% | viability, T/C [35] 24% | viability, T/C [36] 16.1%
6.14: pIC50 (second compound 0.1 µM)
6.02: pIC50 (second compound 0.316 µM)
6.05: pIC50 (second compound 0.01 µM)

Cn1nccc1Nc1nccc(-c2ccn(C(CO)c3ccc(Cl)c(F)c3)c(=O)c2)n1 (centres undefined) + CC(Nc1ccc2c(c1)OCCn1cc(N3C(=O)OCC3C(F)F)nc1-2)C(N)=O
5.96: pIC50 (second compound 1 µM)
5.51: pIC50 (second compound 0.1 µM)
5.11: pIC50 (second compound 0.01 µM)
5.22: pIC50 (second compound 0.0316 µM)
5.64: pIC50 (second compound 0.316 µM)
5.06: pIC50 (second compound 0.00316 µM)
inactive: viability, T/C [1] 103% | viability, T/C [2] 96.7% | viability, T/C [3] 92.7% | viability, T/C [4] 88.8% | viability, T/C [5] 76.6% | viability, T/C [6] 45.6% | viability, T/C [7] 120% | viability, T/C [8] 105% | viability, T/C [9] 93.9% | viability, T/C [10] 84.1% | viability, T/C [11] 76.5% | viability, T/C [12] 41.4% | viability, T/C [13] 106% | viability, T/C [14] 93% | viability, T/C [15] 85.8% | viability, T/C [16] 82.5% | viability, T/C [17] 70.6% | viability, T/C [18] 36% | viability, T/C [19] 97.6% | viability, T/C [20] 97.8% | viability, T/C [21] 89.3% | viability, T/C [22] 71.9% | viability, T/C [23] 50.5% | viability, T/C [24] 25.5% | viability, T/C [25] 95.3% | viability, T/C [26] 86.5% | viability, T/C [27] 77.8% | viability, T/C [28] 72.9% | viability, T/C [29] 40.7% | viability, T/C [30] 13.2% | viability, T/C [31] 69.8% | viability, T/C [32] 83.3% | viability, T/C [33] 70% | viability, T/C [34] 52.1% | viability, T/C [35] 22.8% | viability, T/C [36] 9.78%
